From patent US9745335B2 (Blirt S.A., priority 2012, dated 2017)
Like-named read-outs stand apart in the source and are kept apart here.

Key:
Format in all cases: cell-based
[1] = test system: Candida albicans ATCC 10231; assay: antifungal activity in vitro, serial dilution in RPMI 1640
Protocol: (§1) For the determination of antifungal activity in vitro we used method of serial dilution in buffered medium RPMI 1640, pH 7.0, in a 96-wells microplates, according to the standard procedure (National Committee for Clinical Laboratory Standards. Reference method for broth dilution antifungal susceptibility testing of yeast, approved standard, 2nd ed. M27-A2 vol. 22 Wayne, Pa., 2002). The optical density of cells suspension was measured using a microplates reader (Victor^3, Perkin-Elmer) at the wavelength λ=531 nm (A531). On the basis of obtained results the diagrams of relation between A531 values and concentration of examined compound were made.

[2] = test system: Candida glabrata DSM 11226; assay: as above
Protocol: as §1

Candida krusei DSM 6128 = assay: as above
Protocol: as §1

[3] = test system: Candida lusitaniae DSM 70102; assay: as above
Protocol: as §1

[4] = test system: Candida tropicalis KKP 334; assay: as above
Protocol: as §1

[5] = test system: Saccharomyces cerevisiae ATCC 9763; assay: as above; conditions: RPMI 1640, pH 7.0; for Antifungal activity IC50: Saccharomyces cerevisiae ATCC 9763 (first head over MIC and IC50); for Antifungal activity MIC: Saccharomyces cerevisiae ATCC 9763
Protocol: as §1

Human erythrocytes = assay: hemotoxicity determination (hemolytic activity)
Protocol: The hemotoxicity determination was carried out by the serial dilutions method, according to the procedure described earlier (Slisz, M., et al., E., J Antibiot 57: 669-678 (2004). Human erythrocytes were suspended in the solution of saline to obtain a cell density of suspension 2×10^7/ml. Suitable amounts of diluted solutions of compounds were added to the cell suspension in tubes and were incubated at 37° C. for 30 minutes and then centrifuged (1700×g, 10 min, 4° C.). The concentration of hemoglobin in supernatant after centrifugation of erythrocytes suspension were determined by measuring the absorbance at wavelength λ=540 nm (A540). The maximum level of hemolysis was obtained after incubation of cells suspension in the presence of 0.1% Tritone X-100 (control sample). […] From these graphs, the EH50 values were read which are the interpolated concentrations of compound, for which the A540 value is exactly 50% of the A540 value measured for the control sample.

[6] = human erythrocytes, 37° C., 30 minutes

C[C@@H]1[C@H](O)[C@@H](C)/C=C/C=C/C=C/C=C/C=C/C=C/C=C/[C@H](O[C@@H]2O[C@H](C)[C@@H](O)[C@H](NC(=S)NCc3ccncc3)[C@@H]2O)C[C@@H]2O[C@](O)(C[C@@H](O)C[C@@H](O)[C@H](O)CC[C@@H](O)C[C@@H](O)CC(=O)O[C@H]1C)C[C@H](O)[C@H]2C(=O)O [Compound A29, N-{[3-(pyridin-4-yl)methyl]thioureidyl}amphotericin B]
Antifungal activity MIC [1]: 4 µg/mL
Antifungal activity MIC [2]: 8 µg/mL
Antifungal activity MIC (Candida krusei DSM 6128): 8 µg/mL
Antifungal activity MIC [3]: 4 µg/mL
Antifungal activity MIC [4]: 4 µg/mL
Antifungal activity IC50 [5]: 2.56 µg/mL
Antifungal activity MIC [5]: 4 µg/mL
Hemotoxi EH50 (Human erythrocytes): >100 µg/mL

C[C@@H]1[C@H](O)[C@@H](C)/C=C/C=C/C=C/C=C/C=C/C=C/C=C/[C@H](O[C@@H]2O[C@H](C)[C@@H](O)[C@H](NC3CC(=O)N(c4ccc([N+](=O)[O-])cc4)C3=O)[C@@H]2O)C[C@@H]2O[C@](O)(C[C@@H](O)C[C@@H](O)[C@H](O)CC[C@@H](O)C[C@@H](O)CC(=O)O[C@H]1C)C[C@H](O)[C@H]2C(=O)O (stereo partly shown) [Compound A5, N—[N-(4-nitrophenyl)succinimidyl]amphotericin B]
Antifungal activity MIC [1]: 4 µg/mL
Antifungal activity MIC [2]: 4 µg/mL
Antifungal activity MIC (Candida krusei DSM 6128): 4 µg/mL
Antifungal activity MIC [3]: 2 µg/mL
Antifungal activity MIC [4]: 4 µg/mL
Antifungal activity IC50 [5]: 1.94 µg/mL
Antifungal activity MIC [5]: 4 µg/mL
Hemotoxi EH50 (Human erythrocytes): >100 µg/mL

C[C@@H]1[C@H](O)[C@@H](C)/C=C/C=C/C=C/C=C/C=C/C=C/C=C/[C@H](O[C@@H]2O[C@H](C)[C@@H](O)[C@H](NC(=S)Nc3ccccc3)[C@@H]2O)C[C@@H]2O[C@](O)(C[C@@H](O)C[C@@H](O)[C@H](O)CC[C@@H](O)C[C@@H](O)CC(=O)O[C@H]1C)C[C@H](O)[C@H]2C(=O)O [Compound A23, N-[(3-phenyl)-thioureidyl]amphotericin B]
Antifungal activity MIC [1]: 4 µg/mL
Antifungal activity MIC [2]: 8 µg/mL
Antifungal activity MIC (Candida krusei DSM 6128): 8 µg/mL
Antifungal activity MIC [3]: 4 µg/mL
Antifungal activity MIC [4]: 4 µg/mL
Antifungal activity IC50 [5]: 2.54 µg/mL
Antifungal activity MIC [5]: 4 µg/mL
Hemotoxi EH50 (Human erythrocytes): >100 µg/mL

C[C@@H]1[C@H](O)[C@@H](C)/C=C/C=C/C=C/C=C/C=C/C=C/C=C/[C@H](O[C@@H]2O[C@H](C)[C@@H](O)[C@H](NCc3ccc(C(C)(C)C)cc3)[C@@H]2O)C[C@@H]2O[C@](O)(C[C@@H](O)C[C@@H](O)[C@H](O)CC[C@@H](O)C[C@@H](O)CC(=O)O[C@H]1C)C[C@H](O)[C@H]2C(=O)O [Compound A21, N-(4-tert-butylbenzyl)amphotericin B]
Antifungal activity MIC [1]: 4 µg/mL
Antifungal activity MIC [2]: 4 µg/mL
Antifungal activity MIC (Candida krusei DSM 6128): 4 µg/mL
Antifungal activity MIC [3]: 2 µg/mL
Antifungal activity MIC [4]: 4 µg/mL
Antifungal activity IC50 [5]: 1.58 µg/mL
Antifungal activity MIC [5]: 4 µg/mL
Hemotoxi EH50 (Human erythrocytes): >100 µg/mL

C[C@@H]1[C@H](O)[C@@H](C)/C=C/C=C/C=C/C=C/C=C/C=C/C=C/[C@H](O[C@@H]2O[C@H](C)[C@@H](O)[C@H](NC3CC(=O)N(CC(C)(C)CN(C)C)C3=O)[C@@H]2O)C[C@@H]2O[C@](O)(C[C@@H](O)C[C@@H](O)[C@H](O)CC[C@@H](O)C[C@@H](O)CC(=O)O[C@H]1C)C[C@H](O)[C@H]2C(=O)O (stereo partly shown) [Compound A7, N-{N-[3-(N,N-dimethylamino)-2,2-dimethylpropyl]succinimidyl}amphotericin B]
Antifungal activity MIC [1]: 4 µg/mL
Antifungal activity MIC [2]: 4 µg/mL
Antifungal activity MIC (Candida krusei DSM 6128): 4 µg/mL
Antifungal activity MIC [3]: 1 µg/mL
Antifungal activity MIC [4]: 2 µg/mL
Antifungal activity IC50 [5]: 0.70 µg/mL
Antifungal activity MIC [5]: 2 µg/mL
Hemotoxi EH50 (Human erythrocytes): >100 µg/mL

C[C@@H]1[C@H](O)[C@@H](C)/C=C/C=C/C=C/C=C/C=C/C=C/C=C/[C@H](O[C@@H]2O[C@H](C)[C@@H](O)[C@H](NC(=O)[C@@H](N)CSC(C)(C)C)[C@@H]2O)C[C@@H]2O[C@](O)(C[C@@H](O)C[C@@H](O)[C@H](O)CC[C@@H](O)C[C@@H](O)CC(=O)O[C@H]1C)C[C@H](O)[C@H]2C(=O)O [Compound A37, N-L-(S-tert-butyl)cystylamphotericin B]
Antifungal activity MIC [1]: 2 µg/mL
Antifungal activity MIC [2]: 4 µg/mL
Antifungal activity MIC (Candida krusei DSM 6128): 4 µg/mL
Antifungal activity MIC [3]: 1 µg/mL
Antifungal activity MIC [4]: 2 µg/mL
Antifungal activity IC50 [5]: 1.28 µg/mL
Antifungal activity MIC [5]: 2 µg/mL
Hemotoxi EH50 (Human erythrocytes): >100 µg/mL

C[C@@H]1[C@H](O)[C@@H](C)/C=C/C=C/C=C/C=C/C=C/C=C/C=C/[C@H](O[C@@H]2O[C@H](C)[C@@H](O)[C@H](NC(=O)[C@@H](N)Cc3ccc(I)cc3)[C@@H]2O)C[C@@H]2O[C@](O)(C[C@@H](O)C[C@@H](O)[C@H](O)CC[C@@H](O)C[C@@H](O)CC(=O)O[C@H]1C)C[C@H](O)[C@H]2C(=O)O [Compound A31, N-L-p-iodophenylalanylamphotericin B]
Antifungal activity MIC [1]: 4 µg/mL
Antifungal activity MIC [2]: 8 µg/mL
Antifungal activity MIC (Candida krusei DSM 6128): 8 µg/mL
Antifungal activity MIC [3]: 4 µg/mL
Antifungal activity MIC [4]: 4 µg/mL
Antifungal activity IC50 [5]: 2.52 µg/mL
Antifungal activity MIC [5]: 4 µg/mL
Hemotoxi EH50 (Human erythrocytes; [6]): >100 µg/mL

C[C@@H]1[C@H](O)[C@@H](C)/C=C/C=C/C=C/C=C/C=C/C=C/C=C/[C@H](O[C@@H]2O[C@H](C)[C@@H](O)[C@H](NC(=O)C(N)Cc3ccccc3F)[C@@H]2O)C[C@@H]2O[C@](O)(C[C@@H](O)C[C@@H](O)[C@H](O)CC[C@@H](O)C[C@@H](O)CC(=O)O[C@H]1C)C[C@H](O)[C@H]2C(=O)O (stereo partly shown) [Compound A38, N-o-fluorophenylalanylamphotericin B]
Antifungal activity MIC [1]: 2 µg/mL
Antifungal activity MIC [2]: 4 µg/mL
Antifungal activity MIC (Candida krusei DSM 6128): 4 µg/mL
Antifungal activity MIC [3]: 2 µg/mL
Antifungal activity MIC [4]: 4 µg/mL
Antifungal activity IC50 [5]: 1.92 µg/mL
Antifungal activity MIC [5]: 4 µg/mL
Hemotoxi EH50 (Human erythrocytes; [6]): >100 µg/mL

N-D-β-naphtylalanylamphotericin B [Compound A32]
Antifungal activity MIC [1]: 8 µg/mL
Antifungal activity MIC [2]: 8 µg/mL
Antifungal activity MIC (Candida krusei DSM 6128): 8 µg/mL
Antifungal activity MIC [3]: 4 µg/mL
Antifungal activity MIC [4]: 8 µg/mL
Antifungal activity IC50 [5]: 3.01 µg/mL
Antifungal activity MIC [5]: 4 µg/mL
Hemotoxi EH50 (Human erythrocytes): >100 µg/mL

C[C@@H]1[C@H](O)[C@@H](C)/C=C/C=C/C=C/C=C/C=C/C=C/C=C/[C@H](O[C@@H]2O[C@H](C)[C@@H](O)[C@H](NC3CC(=O)N(Cc4ccccc4)C3=O)[C@@H]2O)C[C@@H]2O[C@](O)(C[C@@H](O)C[C@@H](O)[C@H](O)CC[C@@H](O)C[C@@H](O)CC(=O)O[C@H]1C)C[C@H](O)[C@H]2C(=O)O (stereo partly shown) [Compound A2, N—(N-benzylsuccinimidyl)amphotericin B]
Antifungal activity MIC [1]: 4 µg/mL
Antifungal activity MIC [2]: 8 µg/mL
Antifungal activity MIC (Candida krusei DSM 6128): 8 µg/mL
Antifungal activity MIC [3]: 2 µg/mL
Antifungal activity MIC [4]: 4 µg/mL
Antifungal activity IC50 [5]: 2.22 µg/mL
Antifungal activity MIC [5]: 4 µg/mL
Hemotoxi EH50 (Human erythrocytes): >100 µg/mL

C[C@@H]1[C@H](O)[C@@H](C)/C=C/C=C/C=C/C=C/C=C/C=C/C=C/[C@H](O[C@@H]2O[C@H](C)[C@@H](O)[C@H](NC3CC(=O)N(c4ccccc4C(C)(C)C)C3=O)[C@@H]2O)C[C@@H]2O[C@](O)(C[C@@H](O)C[C@@H](O)[C@H](O)CC[C@@H](O)C[C@@H](O)CC(=O)O[C@H]1C)C[C@H](O)[C@H]2C(=O)O (stereo partly shown) [Compound A4, N—[N-(2-tert-butylophenyl)succinimidyl]amphotericin B]
Antifungal activity MIC [1]: 4 µg/mL
Antifungal activity MIC [2]: 8 µg/mL
Antifungal activity MIC (Candida krusei DSM 6128): 8 µg/mL
Antifungal activity MIC [3]: 4 µg/mL
Antifungal activity MIC [4]: 4 µg/mL
Antifungal activity IC50 [5]: 3.11 µg/mL
Antifungal activity MIC [5]: 4 µg/mL
Hemotoxi EH50 (Human erythrocytes): >100 µg/mL
